Test results reported in US8450301B2, “Piperazine compounds with a herbicidal action” (BASF SE, priority 2006, dated 2013).

Tests used:
Type in all cases: in vivo
Setaria faberi (SETFA) [1] = experiment: greenhouse experiment, post-emergence treatment; conditions: application rate 3 kg/ha, scale 0 to 100
From the text: (§1) The culture containers used were plastic flowerpots containing loamy sand with approximately 3.0% of humus as the substrate. The seeds of the test plants were sown separately for each species.
(§2) For the post-emergence treatment, the test plants were first grown to a height of 3 to 15 cm, depending on the plant habit, and only then treated with the active ingredients which had been suspended or emulsified in water. For this purpose, the test plants were either sown directly and grown in the same containers, or they were first grown separately as seedlings and transplanted into the test containers a few days prior to treatment.
(§3) Depending on the species, the plants were kept at 10-25° C. or 20-35° C. The test period extended over 2 to 4 weeks. During this time, the plants were tended, and their response to the individual treatments was evaluated.
(§4) Evaluation was carried out using a scale from 0 to 100. 100 means no emergence of the plants, or complete destruction of at least the aerial moieties, and 0 means no damage, or normal course of growth. A good herbicidal activity is given at values of at least 70 and a very good herbicidal activity is given at values of at least 85.

[2] = test system: Echinochloa crus galli (ECHCG); experiment: greenhouse experiment, pre-emergence treatment; conditions: application rate 3 kg/ha, scale 0 to 100
From the text: as §1
(§5) For the pre-emergence treatment, the active ingredients, which had been suspended or emulsified in water, were applied directly after sowing by means of finely distributing nozzles. The containers were irrigated gently to promote germination and growth and subsequently covered with transparent plastic hoods until the plants had rooted. This cover caused uniform germination of the test plants, unless this has been impaired by the active ingredients.
as §3, §4

SETIT = experiment: greenhouse experiment, pre-emergence treatment; conditions: application rate 3 kg/ha, scale 0 to 100
From the text: as §1, §5, §3, §4

[3] = test system: Apera spica-venti (APESV); experiment: greenhouse experiment, pre-emergence treatment; conditions: application rate 0.5 kg/ha, scale 0 to 100
From the text: as §1, §5, §3, §4

[4] = test system: Amaranthus retroflexus (AMARE); experiment: greenhouse experiment, pre-emergence treatment; conditions: application rate 0.5 kg/ha, scale 0 to 100
From the text: as §1, §5, §3, §4

Avena fatua (AVEFA) = experiment: greenhouse experiment, post-emergence treatment; conditions: application rate 3 kg/ha, scale 0 to 100
From the text: as §1, §2, §3, §4

[5] = test system: Alopecurus myosuroides (ALOMY); experiment: greenhouse experiment, post-emergence treatment; conditions: application rate 3 kg/ha, scale 0 to 100
From the text: as §1, §2, §3, §4

Setaria faberi (SETFA) [6] = experiment: greenhouse experiment, pre-emergence treatment; conditions: application rate 3 kg/ha, scale 0 to 100
From the text: as §1, §5, §3, §4

In the case of `CC(=O)OC(c1ccccc1[N+](=O)[O-])C1C(=O)N(C)C(Cc2ccccc2)C(=O)N1C` (centres unmarked) [A.2.251], the “herbicidal post-emergence activity against SETFA” value (Setaria faberi (SETFA) [1]) is reported as “good to very good”.
For `CC(C)OC(=O)CN1C(=O)C(Cc2ccccc2[N+](=O)[O-])N(C)C(=O)C1Cc1ccccc1` (single isomer, unassigned) [A.2.65], the “herbicidal post-emergence activity against SETFA” value (Setaria faberi (SETFA) [1]) was “good to very good”.
`C#Cc1ccccc1CC1C(=O)N(C)C(Cc2ccccc2)C(=O)N1C` (centres unmarked) [A.2.135] was tested, and the “herbicidal post-emergence activity against SETFA” value (Setaria faberi (SETFA) [1]) was “good to very good”, the “herbicidal pre-emergence activity against ECHCG” value [2] was “good to very good” and the “herbicidal pre-emergence activity against SETIT” value (SETIT) was “good to very good”.
With `CN1C(=O)C(C(OS(C)(=O)=O)c2ccccc2[N+](=O)[O-])N(C)C(=O)C1Cc1ccccc1` (single isomer, unassigned) [A.2.265] the “herbicidal post-emergence activity against SETFA” value (Setaria faberi (SETFA) [1]) was “good to very good”, the “herbicidal pre-emergence activity against ECHCG” value [2] was “good to very good” and the “herbicidal pre-emergence activity against SETIT” value (SETIT) was “good to very good”.
In the case of `COS(=O)(=O)C(c1ccccc1[N+](=O)[O-])C1C(=O)N(C)C(Cc2cccs2)C(=O)N1C` (centres unmarked) [A.5.17, methyl [1,4-dimethyl-3,6-dioxo-5-(thiophen-2-ylmethyl)piperazin-2-yl]-(2-nitrophenyl) methanesulfonate], the “herbicidal pre-emergence activity against APESV” value [3] is reported as “good (A good herbicidal activity is given at values of at least 70)” and the “herbicidal pre-emergence activity against AMARE” value [4] is reported as “very good (a very good herbicidal activity is given at values of at least 85)”.
For `CN1C(=O)C(Cc2ccccc2NS(C)(=O)=O)N(C)C(=O)C1Cc1ccccc1` (centres unmarked) [A.2.105], the “herbicidal post-emergence activity against AVEFA” value (Avena fatua (AVEFA)) was “very good (a very good herbicidal activity is given at values of at least 85)”, the “herbicidal post-emergence activity against ALOMY” value [5] was “very good (a very good herbicidal activity is given at values of at least 85)” and the “herbicidal pre-emergence activity against ECHCG” value [2] was “good to very good”.
In the case of `CC(Oc1ccc(CC2C(=O)N(C)C(Cc3ccccc3)C(=O)N2C)c([N+](=O)[O-])c1)C(=O)O` (centres unmarked) [A.1.13], the “herbicidal pre-emergence activity against SETIT” value (SETIT) is reported as “good to very good”.
`CC(C)=CCN1C(=O)C(Cc2ccccc2[N+](=O)[O-])N(C)C(=O)C1Cc1ccccc1` (single isomer, unassigned) [A.2.64] was tested, and the “herbicidal post-emergence activity against SETFA” value (Setaria faberi (SETFA) [1]) was “good to very good” and the “herbicidal pre-emergence activity against ECHCG” value [2] was “good to very good”.
With `CN1C(=O)C(C(OS(C)(=O)=O)c2ccccc2[N+](=O)[O-])N(C)C(=O)C1Cc1ccccc1` (single isomer, unassigned) [A.2.267] the “herbicidal post-emergence activity against SETFA” value (Setaria faberi (SETFA) [1]) was “good to very good”, the “herbicidal pre-emergence activity against ECHCG” value [2] was “good to very good” and the “herbicidal pre-emergence activity against SETIT” value (SETIT) was “good to very good”.
For `CN1C(=O)C(Cc2ccccc2C#N)N(C)C(=O)C1Cc1ccccc1` (centres unmarked) [A.2.81], the “herbicidal pre-emergence activity against SETFA” value (Setaria faberi (SETFA) [6]) was “very good (a very good herbicidal activity is given at values of at least 85)”.
For `C=Cc1ccccc1CC1C(=O)N(C)C(Cc2ccccc2)C(=O)N1C` (centres unmarked) [A.2.274], the “herbicidal post-emergence activity against SETFA” value (Setaria faberi (SETFA) [1]) was “good to very good” and the “herbicidal pre-emergence activity against ECHCG” value [2] was “good to very good”.
`CCS(=O)(=O)OC(c1ccccc1[N+](=O)[O-])C1C(=O)N(C)C(Cc2ccccc2)C(=O)N1C` (centres unmarked) [A.2.275] was tested, and the “herbicidal post-emergence activity against SETFA” value (Setaria faberi (SETFA) [1]) was “good to very good” and the “herbicidal pre-emergence activity against ECHCG” value [2] was “good to very good”.
With `CN1C(=O)C(C(O[Si](C)(C)C)c2ccccc2[N+](=O)[O-])N(C)C(=O)C1Cc1ccccc1` (single isomer, unassigned) [A.2.271] the “herbicidal pre-emergence activity against SETIT” value (SETIT) was “good to very good”.
`COS(=O)(=O)C(c1cccnc1Br)C1C(=O)N(C)C(Cc2ccccc2)C(=O)N1C` (centres unmarked) [A.5.16, methyl (5-benzyl-1,4-dimethyl-3,6-dioxopiperazin-2-yl)-(2-bromopyridin-3-yl)methanesulfonate] was tested, and the “herbicidal pre-emergence activity against SETIT” value (SETIT) was “good to very good”.
`CN1C(=O)C(Cc2c(Br)cccc2[N+](=O)[O-])N(C)C(=O)C1Cc1ccccc1` (centres unmarked) [A.2.133] was tested, and the “herbicidal post-emergence activity against SETFA” value (Setaria faberi (SETFA) [1]) was “good to very good” and the “herbicidal pre-emergence activity against ECHCG” value [2] was “good to very good”.
In the case of `CN1C(=O)C(C(OCc2ccccc2)c2ccccc2[N+](=O)[O-])N(C)C(=O)C1Cc1ccccc1` (centres unmarked) [A.2.255], the “herbicidal post-emergence activity against SETFA” value (Setaria faberi (SETFA) [1]) is reported as “good to very good”.
For `Cc1cc(-c2ccccc2CC2C(=O)N(C)C(Cc3ccccc3)C(=O)N2C)on1` (centres unmarked) [A.2.273], the “herbicidal post-emergence activity against SETFA” value (Setaria faberi (SETFA) [1]) was “good to very good”, the “herbicidal pre-emergence activity against ECHCG” value [2] was “good to very good” and the “herbicidal pre-emergence activity against SETIT” value (SETIT) was “good to very good”.
